Reference: patent publication US20240317774A1, “Pharmaceutical Compound” (GLAXOSMITHKLINE INTELLECTUAL PROPERTY DEVELOPMENT LIMITED, priority 2021, published 2024)
Where two headings read alike, the source gives them in different places.

Experiments:
P. falciparum 3D7A = test: Panel of P. falciparum strains: 3D7A; type: cell-based; settings: Plasmodium falciparum, read-out: IC50 (mean μM ± SD) 3D7A
P. falciparum Dd2 = test: Panel of P. falciparum strains: Dd2; type: cell-based; settings: strain Dd2
P. falciparum FCR3 = test: Panel of P. falciparum strains: FCR3; type: cell-based; settings: strain FCR3
P. falciparum Tm90C2A = test: Panel of P. falciparum strains: Tm90C2A; type: cell-based; settings: strain Tm90C2A
P. falciparum Tm90C2B = type: cell-based; settings: strain Tm90C2B
[1] = tested on: P. falciparum infected erythrocytes; test: Blood stages activity, [3H]hypoxanthine incorporation method; type: cell-based; settings: Plasmodium falciparum, Erythrocyte; whole cell activity; read-out: WC IC50
Procedure: The sensitivity of P. falciparum infected erythrocytes to the compound was determined using the [3H]hypoxanthine incorporation method with an inoculum of 0.5% parasitemia (ring stage) and 2% hematocrit. The parasites were grown in RPMI 1640, 25 mM HEPES and supplemented with 5% Albumax. Plates are incubated at 37° C., 5% CO2, 5% O2, 90% N2. After 24 h of incubation, [3H]hypoxanthine is added and plates are incubated for another 24 h. After that period, plates are harvested on a glass fiber filter using a TOMTEC Cell harvester 96. Filters are dried and melt on scintillator sheets and the bound radioactivity is quantified by use of a Wallac Microbeta Trilux (Model 1450 LS-Perkin Elmer). IC50s are determined using Grafit 7 program (Grafit program; Erithacus Software, Horley, Surrey, United Kingdom).

[2] = target: T1, cytochrome bc1 of mitochondria isolated from human cells (HEK293) (Homo sapiens, UniProt P00156); test: Enzymatic bc1 inhibition, cytochrome c reductase activity, human mitochondria; type: biochemical; settings: for IC50: activity in the human target, read-out: Hbc1 IC50; for Tox window selectivity index: human bc1 vs P. falciparum bc1
T1 construct: endogenous in cells; host or cells: HEK293 (isolated mitochondria)
Procedure: (§1) For cytochrome bc1 experiments, mitochondria were isolated as follows: parasitized erythrocytes were harvested by centrifugation and lysed with 0.05% (w/v) saponin in RPMI. Then parasites were washed three times with H-medium (0.07 M sucrose, 0.21 M mannitol, 1 mM EGTA, 5 mM MgCl2, 5 mM KH2PO4, and 4 mM HEPES, pH 7.4) and resuspended in the same medium in the presence of 1 mM PMSF and protease inhibitor cocktail (Roche Complete). Parasites were disrupted by N2 cavitation (4639 Cell disruption Bomb, Parr Instrument, Moline, IL, USA) at 1600 psi for 25 min at 4° C. Unbroken cells and cell debris were removed by centrifugation at 1,200×g for 10 min at 4° C. The mitochondrial fraction was pelleted at 10,000×g for 20 min at 4° C. The mitochondrial pellet was gently resuspended in 0.8 M sucrose, 1 mM EDTA, 10 mM Tris-HCl PH 7.4, and 0.1% BSA prior to separation on a 1-2 M sucrose gradient. The sample was centrifuged on a gradient at 80,000×g for 2 hr at 4° C. The mitochondria were then recovered and washed with 1 mM EDTA, 10 mM Tris-HCL pH 7.4 to remove sucrose, and resuspended in H-medium with protease inhibitor cocktail and 1 mM PMSF. Samples were stored at −80° C. until use. In the case of human mitochondria, HEK293 human cell line was used as starting material. Cells were pelleted at 400×g 10 min and disrupted by N2 cavitation. Mitochondria then were isolated using the method described above. Cytochrome c reductase activity was assayed by a modification of the method of Fry and Pudney, Biochem. Pharmacol., 43 (1992), pp. 1545-1553. Mitochondria (40 μg/ml) were diluted in reaction buffer (250 mM sucrose, 50 mM KH2PO4, 0.2 mM EDTA, 1 mM NaN3, and 2.5 mM KCN) containing 50 μM cytochrome c. Reactions were started by addition of 25 μM decylubiquinol and monitored by reduction of cytochrome c at 550 nm. To assure the linearity of the enzymatic reaction only data from the first 60 s were collected. Decylubiquinol substrate was prepared by reducing decylubiquinone (Sigma-Aldrich, St. Louis, MO, USA) in ethanol with sodium borohydride. Decylubiquinol was aliquoted and stored in acidified ethanol at −80° C. Inhibition of bc1 activity on mitochondria isolated from human parasites (P. falciparum 3D7A), rodent parasites (P. berghei ANKA) and human cells (HEK293).

[3] = target: T2, cytochrome bc1 of mitochondria isolated from human parasites (P. falciparum 3D7A) (Plasmodium falciparum, UniProt Q02768); test: Enzymatic bc1 inhibition, cytochrome c reductase activity, P. falciparum mitochondria; type: biochemical
T2 construct: endogenous in cells; host or cells: P. falciparum 3D7A parasites from parasitized erythrocytes (isolated mitochondria)
T2 sequence (Q02768 whole entry): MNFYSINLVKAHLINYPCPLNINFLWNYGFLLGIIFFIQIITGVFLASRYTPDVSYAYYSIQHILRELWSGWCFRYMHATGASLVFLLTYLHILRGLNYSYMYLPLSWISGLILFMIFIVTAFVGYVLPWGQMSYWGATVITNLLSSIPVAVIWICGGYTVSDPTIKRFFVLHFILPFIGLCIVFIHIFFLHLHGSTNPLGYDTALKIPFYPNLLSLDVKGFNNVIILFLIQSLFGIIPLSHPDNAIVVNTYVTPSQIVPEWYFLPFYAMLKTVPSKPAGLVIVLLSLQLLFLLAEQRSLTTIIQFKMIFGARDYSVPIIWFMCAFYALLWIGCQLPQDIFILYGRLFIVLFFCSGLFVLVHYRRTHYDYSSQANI
Procedure: as §1

[4] = activity in the P. falciparum target, read-out: p.fbc1 IC50

| SMILES | IC50 (P. falciparum 3D7A) [µM] | Pf IC50 Ratio vs Pf IC50 3D7, Dd2 (P. falciparum Dd2) | Pf IC50 Ratio vs Pf IC50 3D7, FCR3 (P. falciparum FCR3) | Pf IC50 Ratio vs Pf IC50 3D7, Tm90C2A (P. falciparum Tm90C2A) | Pf IC50 Ratio vs Pf IC50 3D7, Tm90C2B (P. falciparum Tm90C2B) | IC50 (P. falciparum 3D7A; strain 3D7A) [µM] | IC50 [1] [nM] | IC50 [2] [nM] | Tox window selectivity index [2] | IC50 [3] [nM] | IC50 [3, 4] [nM] |
| --- | --- | --- | --- | --- | --- | --- | --- | --- | --- | --- | --- |
| C[C@H]1[C@H](OC(=O)CCC(=O)O)O[C@@H]2O[C@@]3(C)CC[C@H]4[C@H](C)CC[C@@H]1[C@@]24OO3 [Artesunate] | 0.014 ± 0.0003 | 1 | 1 | 1 | 1 |  |  |  |  |  |  |
| O=C1C(O)=C([C@H]2CC[C@H](c3ccc(Cl)cc3)CC2)C(=O)c2ccccc21 [Atovaquone] |  | 2 | >100 | 1 | >250 | 0.001 ± 0.001 |  |  |  |  |  |
| CCN(CC)CCCC(C)Nc1ccnc2cc(Cl)ccc12 (centres unmarked) [Chloroquine] | 0.029 ± 0.006 | >7 | >7 | >7 | >14 |  |  |  |  |  |  |
| C[C@H]1[C@@H](O)O[C@@H]2O[C@@]3(C)CC[C@H]4[C@H](C)CC[C@@H]1[C@@]24OO3 [Dihydroartemisinine] |  | 1 | 1 | 1 | 1 | 0.004 ± 0.0001 |  |  |  |  |  |
| Cc1[nH]c2sc3cc(-c4ccc(C(F)(F)F)cc4F)ccc3c2c(=O)c1Cl [Example 1, 3-chloro-7-(2-fluoro-4-(trifluoromethyl)phenyl)-2-methylbenzo[4,5] thieno[2,3-b]pyridin-4(1H)-one] |  | 1 | 1 | 1 | 7 | 0.012 ± 0.002 | 1.46 | 3300 | 300-600 | 4.6 |  |
| Cc1[nH]c2sc3cc(-c4cc(C(F)(F)F)ccc4F)ccc3c2c(=O)c1Cl [Example 3, 3-chloro-7-(2-fluoro-5-(trifluoromethyl)phenyl)-2-methylbenzo[4,5]thieno[2,3-b]pyridin-4(1H)-one] |  |  |  |  |  |  | 31.6 | 1520 | 500 |  | 1.8 |
| Cc1[nH]c2sc3cc(-c4ccccc4OC(F)(F)F)ccc3c2c(=O)c1Cl [Example 4, 3-chloro-2-methyl-7-(2-(trifluoromethoxy)phenyl)benzo[4,5]thieno[2,3-b]pyridin-4(1H)-one] |  |  |  |  |  |  | 0.732 | 1560 | 1625 |  | 0.96 |
| Cc1[nH]c2sc3cc(-c4ccc(C(F)(F)F)cc4C(F)(F)F)ccc3c2c(=O)c1Cl [Example 5, 7-(2,4-bis(trifluoromethyl)phenyl)-3-chloro-2-methylbenzo[4,5]thieno[2,3-b]pyridin-4(1H)-one] |  |  |  |  |  |  | 0.433 | 2420 | 2200 | 1.1 |  |
| Cc1[nH]c2sc3cc(-c4ccc(CO)cc4)ccc3c2c(=O)c1Cl [Example 6, 3-chloro-7-(4-(hydroxymethyl)phenyl)-2-methylbenzo[4,5]thieno[2,3-b]pyridin-4(1H)-one] |  |  |  |  |  |  | 0.946 | 5420 |  |  |  |
| Cc1[nH]c2sc3cc(-c4ccc(CN(C)C5CCN(Cc6ccc(OC(F)(F)F)cc6)CC5)cc4)ccc3c2c(=O)c1Cl [Example 7, 3-chloro-2-methyl-7-(4-((methyl(1-(4-(trifluoromethoxy)benzyl)piperidin-4-yl)amino)methyl)phenyl)benzo[4,5]thieno[2,3-b]pyridin-4(1H)-one 2,2,2-trifluoroacetate] |  |  |  |  |  |  | 121 | > 10000 |  |  |  |
| CCCCN(CCCC)CC(O)c1cc(Cl)cc2c1-c1ccc(Cl)cc1/C2=C/c1ccc(Cl)cc1 (centres unmarked) [Lumefantrine] | 0.011 ± 0.004 | 1 |  | 0.1 | 1 |  |  |  |  |  |  |
| OC(c1cc(C(F)(F)F)nc2c(C(F)(F)F)cccc12)C1CCCCN1 (centres unmarked) [Mefloquine] |  | 1 | 1 | 0.3 | 1 | 0.037 ± 0.001 |  |  |  |  |  |
| CCc1nc(N)nc(N)c1-c1ccc(Cl)cc1 [Pyrimethamine] |  | >312 | 3 | >312 | >88 | 0.032 ± 0.001 |  |  |  |  |  |
